From patent publication US20230355713A1, “PEPTIDE FOR THERAPEUTIC APPLICATIONS IN THE DERMATOLOGICAL FIELD” (Dompe' Farmaceutici S.P.A., priority 2020, published 2023)
pEC50: −log10 of the molar value. Where no end group is shown, it is not given here.

What was measured:
sensory nerve fibers = assay: Histological test: density of sensory nerve fibers in skin biopsies (NF200, TRPV1 antibodies); type: in vivo, SCF transgenic mice of the C57BL6 line; conditions: 200 μg/mL in base cream, after the 8-week treatment of example 2a
Source text: The in vivo ability of the NGF 1-14 peptide and the NGF whole protein to increase the density of nerve endings was compared.
After the treatment described in example 2a, the animals were sacrificed and skin samples (3 biopsies per point) were taken both from the area treated with NGF1-14 or with NGF, and from the untreated area, for each animal, for the purpose of histological examination.
To evaluate the density of sensory nerve fibers, antibodies directed against the neurofilament protein 200 (NF200; Sigma) specific for large diameter fibers, and antibodies directed against the transient receptor potential vanilloid 1 (TRPV1, Neuromics) were used to measure peripheral sensory fibers (small diameter).

[1] = tested on: primary cell cultures of normal human melanocytes; assay: In vitro melanin production by melanocytes (melanin content by ELISA); type: cell-based; conditions: concentration at which 50% of the maximum concentration of cellular melanin is observed; cultured for one week
Protocol: The in vitro ability of the NGF 1-14 peptide and the NGF whole protein to activate melanin production by melanocytes was compared.
According to already established protocols, primary cell cultures of normal human melanocytes were seeded in Petri dishes and cultured for one week, with and without the presence of the NGF 1-14 peptide at various concentrations, using the whole human NGF protein as a control. The melanin content was measured with the ELISA enzyme immunoassay. The maximum melanin concentration, measured as the difference from baseline, was experimentally determined from the plateau of the dose response curves of NGF and NGF 1-14. The EC50 represents the concentration of NGF 1-14 or NGF at which 50% of the maximum concentration of cellular melanin is observed.

[2] = tested on: mouse model of human vitiligo; assay: In vivo efficacy test: skin re-pigmentation, depigmentation score 0 to 5; design: species or system SCF transgenic mice of the C57BL6 line; conditions: 200 μg/mL in base cream, topical, twice a day for 8 weeks; 0 to 5 point scale
Protocol: The in vivo capacity of skin re-pigmentation by the NGF 1-14 peptide and the whole NGF protein was compared.
The study was conducted on a mouse model of human vitiligo.
SCF transgenic mice of the C57BL6 line, treated for 10-12 weeks to induce vitiligo using CD8+T cells specific for melanocytes, were shaved twice a week in the dorsal part affected by depigmentation, with an electric razor, in an area of about 6 cm×6 cm. The animals were divided into two groups of equal numbers (8 animals per group). On a first group of animals, topical administration was carried out in two sites of the shaved area spaced from both sides of the midline, applying on the left a topical preparation containing 200 μg/mL of NGF peptide in a base cream vehicle, while on the right side only the base cream (control) was applied. The same procedure was repeated on the second group of animals, applying on the left a topical preparation containing 200 μg/mL of NGF 1-14 peptide in a base cream vehicle, while on the right side only the base cream (control) was applied.
The application was spread evenly twice a day for 8 weeks, in the central part of the shaved area, on a surface of about 2 cm×2 cm. Starting from the second day and thereafter, the areas of interest were cleaned with a cloth before applying the preparations. The animals were kept away from possible sources of ultraviolet light irradiation.
Quantification of epidermal depigmentation was performed using a subjective scoring system based on a 0 to 5 point scale, where 5 represents the most severe degree of depigmentation, reported in the literature (Rebecca L. et al., Curr Protoc Immunol. (2019), 124(1)—February). A trained researcher blinded to the details of the experiment performed the evaluation at the treated site.

Sprague-Dawley rats = assay: In vivo tolerability test: plantar thermal hyperalgesia test (Hargreaves apparatus), paw retraction latency; conditions: for hyperalgesic activity compared to the saline group (paw retraction latency): 1, 3, 5 and 24 h after injection, P<0.001
Protocol: The in vivo intra-implant tolerability of the NGF 1-14 peptide was evaluated in comparison with the whole protein NGF.
Tyrode's isotonic solution containing the rh-NGF protein in concentrations from 5 to 20 μg/mL and the vehicle was administered intra-implantally in the dorsal region of Sprague-Dawley rats (10 animals for each concentration), in a volume of 0.05 mL using a very fine syringe.
Tyrode's isotonic solution containing the murine-NGF protein in concentrations from 5 to 20 μg/mL and the vehicle was administered intra-implantally in the dorsal region of Sprague-Dawley rats (10 animals for each concentration), in a volume of 0.05 mL using a very fine syringe.
Tyrode's isotonic solution containing the NGF 1-14 peptide in concentrations from 5 to 20 μg/mL and the vehicle was administered intra-implantally in the dorsal region of Sprague-Dawley rats (10 animals for each concentration), in a volume of 0.05 mL using a very fine syringe.
The solution was administered intra-implantally in the dorsal region of Sprague-Dawley rats (10 animals for each concentration), in a volume of 0.05 mL using a very fine syringe.
After the intra-implant injections, the Plantar thermal hyperalgesia test was conducted. In particular: after 1, 3, 5 and 24 h the thermal sensitivity was determined using the Hargreaves apparatus (HA).
Hypersensitivity to heat was assessed using the rat plantar test apparatus (Ugo Basile, Italy) following the method described by Hargreaves et al. (1988). The plantar test uses three perspex boxes (22×19×25 cm) placed on an elevated glass table. The rats were housed in each box, so that 3 rats could be tested simultaneously in a single apparatus and allowed to acclimate for at least 10 minutes. A mobile infrared heat source was applied to the plantar surface of the hind legs.
Paw retraction latency was defined as the time (in seconds) it took the rat to remove the hind leg from the heat source. The heat source was calibrated to an intensity of 15 IR and a cut-off of 50 sec was applied to prevent tissue damage. The test was performed at 1, 3, 5 and 24 hours after the injection. Each paw was tested twice per session (raw data represents the average of 2 measurements performed at an interval of approximately 5 minutes).

| Substance | Nerve endings density (mm/mm^3) NF200 (sensory nerve fibers; large diameter fibers) | Nerve termination density unit of measurement (mm/mm^3) TRPV1 (sensory nerve fibers; small diameter peripheral sensory fibers) | pEC50 [1] | percentage of animals with a degree of depigmentation less than or equal to 2 [2] [%] | percentage of animals with a moderate degree of depigmentation equal to 3 [2] [%] | percentage of animals with a severe degree of depigmentation greater than or equal to 4 [2] [%] | hyperalgesic activity compared to the saline group (paw retraction latency) (Sprague-Dawley rats; 10 μg/50 μL) | hyperalgesic activity compared to the saline group (paw retraction latency) (Sprague-Dawley rats; 20 μg/50 μL) | hyperalgesic effect compared with NGF 1-14 at 10 and 20 μg/50 μL (Sprague-Dawley rats; 10 μg/50 μL, P<0.05 at 1-3-24 h and P<0.01 at 5 h) |
| --- | --- | --- | --- | --- | --- | --- | --- | --- | --- |
| NGF: Nerve growth factor, whole human NGF protein used as a control | 350 + 50 mm/mm^3 | 200 + 36 mm/mm^3 | 10.22 | 37.5 | 37.5 | 25 | – | – | – |
| SSSHPIFHRGEFSV [NGF 1-14, SSSHPIFHRGEFSV] | – | – | 5.92 | – | – | – | showed hyperalgesic activity | showed hyperalgesic activity | – |
| rh-NGF: rh-NGF protein, whole protein NGF comparator in the tolerability test | – | – | – | – | – | – | showed hyperalgesic activity | – | more pronounced significant hyperalgesic effect |
